From patent publication US8912184B1, “Therapeutic and diagnostic methods” (Alzheimer's Institute of America, Inc., priority 2010, dated 2014)

Columns and labels:
HCT116 cells [1] = experiment: 72 Hour HCT116 Cytotoxicity Assay (CellTiter-Glo); format: cell-based; details: Homo sapiens, HCT-116, 72 h, 72 hours; read-out: HCT116 cell cytotoxicity IC50
Description: HCT116 cells were seeded in 96 well plates (Greiner Bio-One, Monroe, N.C.) and allowed to settle overnight. Test compound dissolved in dimethyl sulfoxide (DMSO) was added and drug incubation proceeded for 72 hours. […] After 72 hour, 50 μL of CellTiter-Glo Luminescent Cell Viability Assay reagent (Promega Corporation, Madison, Wis.) was added to cells in 200 μL of cellular media. After a proscribed incubation period, luminescence was measured using a TopCount NXT plate reader (PerkinElmer, Waltham, Mass.).

HCT116 cells [2] = experiment: Nicotinic Acid Rescue Cytotoxicity Assay, first method: cytotoxicity to HCT116 cells in presence and absence of 10 μM nicotinic acid; format: cell-based; details: Homo sapiens, HCT-116, 72 h
Description: Additionally, Nicotinic Acid (NA) rescue of cytotoxicity of Nampt inhibitors was assessed by two distinct methods. In the first method, Nampt1 inhibitor cytotoxicity was evaluated in the presence and absence of exogenous nicotinic acid (NA) at a fixed concentration. […] Twenty four hours after cells were plated, the media was removed and replaced with media containing 10 μM nicotinic acid. Compounds were then immediately added. Cell viability was then assessed at 72 h.
Using the first of the two assays described above, the 90 compounds shown in Table 5, below, were tested for cytotoxicity towards Naprt1-proficient HCT116 cells, and for the ability of NA to block the observed cytotoxicity (or “rescue” the cells from the cytotoxic activity of the tested compound). The compounds listed are referred to by a unique rescue analysis example number (i.e., R1, R2 . . . R90) that is used as a reference number in Table 4, in which the results of the cytotoxicity and rescue assays are presented.

MIA PaCa2 cell line = experiment: cells; details: Homo sapiens, MIA PaCa-2, 72 h, read-out: EC50 of NA rescue from Exemplary Compound A-induced cytotoxicity
Description: (§1) In the second method, cells were exposed to varying concentrations of NA in the presence of a fixed, toxic concentration of Nampt1 inhibitor. This allows determination of the relative effectiveness of NA at rescuing Nampt1 inhibitor-mediated cytotoxicity across cell lines. For this method, the following modifications were made to the standard cytotoxicity assay. Twenty four hours after cell were plated, a serial dilution of nicotinic acid, dissolved in water, was generated and added to the cells. […] Cell viability was then assessed at 72 h. Cell viability (after normalization to controls lacking Nampt1 inhibitor) was plotted against NA concentration.
(§2) In cases where the high asymptote of the NA rescue curve corresponded to 75% or less recovery in cell viability, the cell line was deemed to be partially rescued.
(§3) In the first set of experiments, two different cancer cell lines were employed.

HCT-116 cell line = experiment: cells; details: Homo sapiens, HCT-116, 72 h, read-out: EC50 of NA rescue from Exemplary Compound A-induced cytotoxicity
Description: as §1, §2, §3

[3] = format: in vivo; details: mice, oral NA 3 g/kg 1 h prior or up to 8 h following 300 mg/kg Exemplary Compound A
[4] = absence of nicotinic acid, read-out: HCT116 72 h cytotoxicity
[5] = presence of 10 μM nicotinic acid, read-out: HCT116 72 h cytotoxicity with 10 μM Nicotinic Acid

SMILES	IC50 (HCT116 cells [2]; [4])	IC50 (HCT116 cells [2]; [5])	also measured
O=C(NCCCNS(=O)(=O)c1ccccc1-c1ccccc1)NCc1cccnc1 [Example 152, N-(3-{[(pyridin-3-ylmethyl)carbamoyl]a-mino}propyl)biphenyl-2-sulfonamide]			IC50 (HCT116 cells [1]): ~55 nM
O=C(NCc1cccnc1)Nc1ccc(COc2cc(C(F)(F)F)ccc2Cl)cc1 [Example 164, 1-(4-{[2-Chloro-5-(trifluorometh-yl)phenoxy]meth-yl}phenyl)-3-(pyridin-3-ylmethyl)urea]			IC50 (HCT116 cells [1]): ~74 nM
O=C(NCc1cccnc1)Nc1ccc(C[S+]([O-])c2ccccc2-c2ccccc2)cc1 (centres unmarked) [Example 210, 1-{4-[(biphenyl-2-ylsulfinyl)meth-yl]phenyl}-3-(pyridin-3-ylmethyl)urea]			IC50 (HCT116 cells [1]): ~39 nM
N#C/N=C(/NCc1ccc(COc2ccccc2-c2ccccc2)cc1)Nc1ccncc1 [Example 605, 1-{4-[(Biphenyl-2-yloxy)methyl]benzyl}-2-cyano-3-pyridin-4-ylguanidine]			IC50 (HCT116 cells [1]): ~1.1 nM
O=C(NCc1cccnc1)Nc1ccc(NS(=O)(=O)c2cc(Cl)ccc2Cl)cc1 [Example R74, 2,5-dichloro-N-(4-{[(pyridin-3-ylmethyl)carbamoyl]amino}phenyl)benzene-sulfonamide]	2.3 nM	> 5000 nM	
O=C(NCc1cccnc1)Nc1ccc(NS(=O)(=O)c2ccc(Cl)cc2Cl)cc1 [Example R75, 2,4-dichloro-N-(4-{[(pyridin-3-ylmethyl)carbamoyl]amino}phenyl)benzene-sulfonamide]	30.3 nM	> 5000 nM	
Cc1cc(S(=O)(=O)Nc2ccc(NC(=O)NCc3cccnc3)cc2)c(Cl)cc1Cl [Example R76, 2,4-dichloro-5-methyl-N-(4-{[(pyridin-3-ylmethyl)carbamoyl]amino}phenyl)benzene-sulfonamide]	1.3 nM	> 5000 nM	
O=C(NCc1cccnc1)Nc1ccc(OCc2ccccc2-c2ccccc2)cc1 [Example R77, 1-[4-(biphenyl-2-ylmethoxy)phenyl]-3-(pyridin-3-ylmethyl)urea]	1.7 nM	> 5000 nM	
N#C/N=C(/NCCCCNC(=O)COc1ccccc1-c1ccccc1)Nc1ccncc1 [Example R78, 2-(Biphenyl-2-yloxy)-N-(4-{[(Z)-(cyanoamino)(pyridin-4-ylamino)methylidene]amino}butyl)acetamide]	0.5 nM	> 5000 nM	
O=C(NCCCCCCOc1ccc(Cl)cc1)Nc1ccncc1 [Example R79, 1-[6-(4-Chlorophenoxy)hexyl]-3-pyridin-4-ylurea]	88.9 nM	> 5000 nM	
O=C(NCc1cccnc1)Nc1ccc(COc2ccccc2-c2ccsc2)cc1 [Example R80, 1-(Pyridin-3-ylmethyl)-3-(4-{[2-(thiophen-3-yl)phenoxy]methyl}phenyl)urea]	0.9 nM	> 5000 nM	
O=C(NCc1cccnc1)Nc1ccc(COc2ccccc2-c2ccncc2)cc1 [Example R81, 1-(Pyridin-3-ylmethyl)-3-(4-{[2-(pyridin-4-yl)phenoxy]methyl}phenyl)urea]	5.4 nM	> 5000 nM	
O=C(NCc1cccnc1)Nc1ccc(COc2ccccc2-c2cccc(F)c2)cc1 [Example R82, 1-(4-{[(3′-Fluorobiphenyl-2-yl)oxy]methyl}phenyl)-3-(pyridin-3-ylmethyl)urea]	1.9 nM	> 5000 nM	
O=C(NCc1cccnc1)Nc1ccc(COc2ccccc2-c2cccnc2)cc1 [Example R83, 1-(Pyridin-3-ylmethyl)-3-(4-{[2-(pyridin-3-yl)phenoxy]methyl}phenyl)urea]	1.5 nM	> 5000 nM	
CCn1cc(-c2ccccc2OCc2ccc(NC(=O)NCc3cccnc3)cc2)cn1 [Example R84, 1-(4-{[2-(1-Ethyl-1H-pyrazol-4-yl)phenoxy]methyl}phenyl)-3-(pyridin-3-ylmethyl)urea]	10.8 nM	> 5000 nM	
O=C(NCCCCCOc1ccccc1-c1ccccc1)NCc1cccnc1 [Example R85, 1-[5-(Biphenyl-2-yloxy)pentyl]-3-(pyridin-3-ylmethyl)urea]	1.3 nM	> 5000 nM	
O=C(NCc1cccnc1)Nc1ccc(CNc2ccccc2-c2ccccc2)cc1 [Example R86, 1-{4-[(Biphenyl-2-ylamino)methyl]phenyl}-3-(pyridin-3-ylmethyl)urea]	0.4 nM	4000 nM	
O=C(NCc1cccnc1)Nc1ccc(C2(Oc3ccccc3-c3ccccc3)CC2)cc1 [Example R87, 1-{4-[1-(Biphenyl-2-yloxy)cyclopropyl]phenyl}-3-(pyridin-3-ylmethyl)urea]	1.1 nM	3000 nM	
O=C(NCc1cccnc1)Nc1ccc(NS(=O)(=O)c2ccccc2-c2ccn[nH]2)cc1 [Example R88, 2-(1H-Pyrazol-5-yl)-N-(4-{[(pyridin-3-ylmethyl)carbamoyl]amino}phenyl)benzene-sulfonamide]	2.5 nM	> 5000 nM	
CCn1cc(-c2ccccc2S(=O)(=O)Nc2ccc(NC(=O)NCc3cccnc3)cc2)cn1 [Example R89, 2-(1-Ethyl-1H-pyrazol-4-yl)-N-(4-{[(pyridin-3-ylmethyl)carbamoyl]amino}phenyl)benzene-sulfonamide]	34.2 nM	> 5000 nM	
O=C(NCc1cccnc1)Nc1ccc(NS(=O)(=O)c2ccccc2-c2ccccc2)nc1 [Example R90, N-(5-{[(Pyridin-3-ylmethyl)carbamoyl]amino}pyridin-2-yl)biphenyl-2-sulfonamide]	28.7 nM	> 5000 nM	
O=C(O)c1cccnc1 [NA, nicotinic acid]			EC50 (MIA PaCa2 cell line): > 10000 nM; EC50 (HCT-116 cell line): 400 nM; effect of NA on Exemplary Compound A lethality [3]: completely blocked
